From patent US4100276A, “Fusidic acid derivatives” (priority 1975, dated 1978)
Converted amounts (≈) assume the structure as drawn. Where a name gives a salt, the structure may show the parent alone.

Columns and labels:
Assay in all cases: In vitro activity, concentration required for 50% inhibition (Table A)
[1] = tested on: Streptococcus sp. Leo EG2; type: cell-based; details: Streptococcus sp. Leo EG2; for IC50: read-out: Concentration required for 50% inhibition (IC50)
[2] = tested on: Staphylococcus aureus Leo CC178B; type: cell-based; details: Staphylococcus aureus Leo CC178B; for IC50: LEOCC178B, read-out: Concentration required for 50% inhibition (IC50)
[3] = tested on: Streptococcus pyogenes Leo EC; type: cell-based; details: Streptococcus pyogenes Leo EC; for IC50: read-out: Concentration required for 50% inhibition (IC50)
[4] = tested on: Staph. aureus, Leo CC178H2 (fusidic acid resistant strain); type: cell-based; details: Staphylococcus aureus, read-out: Concentration required for 50% inhibition (IC50)
Corynebact. acnes Leo FN = type: cell-based, Corynebacterium acnes; details: Corynebact. acnes Leo FN; for IC50: Cutibacterium acnes, read-out: Concentration required for 50% inhibition (IC50)
[5] = tested on: Bacteroides fragilis, Leo JA2; type: cell-based; details: LEOJA2; Bacteroides fragilis Leo JA2; read-out: Concentration required for 50% inhibition (IC50)
Staph. aureus Leo CJ145 = type: cell-based; details: Staph. aureus Leo CJ145; for IC50: Staphylococcus aureus, LEOCJ145, read-out: Concentration required for 50% inhibition (IC50)

C=CCS[C@H]1C[C@@]2(C)C(=C1C(CCC=C(C)C)C(=O)O)C[C@@H](O)[C@H]1[C@@]3(C)CC[C@@H](O)[C@@H](C)[C@@H]3CC[C@@]12C (some centres unmarked) [Example 14]
IC50 [1]: 1.6 µg/mL (≈ 3.01 µM)
IC50 [2]: 1.6 µg/mL (≈ 3.01 µM)
IC50 [3]: 0.32 µg/mL (≈ 0.603 µM)
IC50 [4]: 1.6 µg/mL (≈ 3.01 µM)
IC50 (Corynebact. acnes Leo FN): 1.6 µg/mL (≈ 3.01 µM)
IC50 [5]: 4 µg/mL (≈ 7.54 µM)
IC50 (Staph. aureus Leo CJ145): 5 µg/mL (≈ 9.42 µM)

CC(C)=CCCC(C(=O)O)C1=C2C[C@@H](O)[C@H]3[C@@]4(C)CC[C@@H](O)[C@@H](C)[C@@H]4CC[C@]3(C)[C@@]2(C)C[C@@H]1SC(C)C (stereo partly drawn) [Example 31D, 3α,11α-dihydroxy-16β-isopropylthiofusida-13(17),24-dien-21-oic acid]
Concentration required for 50% inhibition (IC50) [1]: 0.79 µg/mL
Concentration required for 50% inhibition (IC50) [2]: 1.6 µg/mL
Concentration required for 50% inhibition (IC50) [3]: 0.63 µg/mL
Concentration required for 50% inhibition (IC50) (Corynebact. acnes Leo FN): 1.6 µg/mL
Concentration required for 50% inhibition (IC50) (Staph. aureus Leo CJ145): 5.0 µg/mL

CC(C)=CCCC(C(=O)O)C1=C2C[C@@H](O)[C@H]3[C@@]4(C)CC[C@@H](O)[C@@H](C)[C@@H]4CC[C@]3(C)[C@@]2(C)C[C@@H]1SC(C)(C)C (some centres unmarked) [Example 13]
IC50 [1]: 1.6 µg/mL (≈ 2.93 µM)
IC50 [2]: 1.6 µg/mL (≈ 2.93 µM)
IC50 [3]: 0.63 µg/mL (≈ 1.15 µM)
IC50 [4]: 1.6 µg/mL (≈ 2.93 µM)
IC50 (Corynebact. acnes Leo FN): 0.5 µg/mL (≈ 0.914 µM)
IC50 [5]: 2 µg/mL (≈ 3.66 µM)
IC50 (Staph. aureus Leo CJ145): 7.9 µg/mL (≈ 14.4 µM)

CC(C)=CCCC(C(=O)O)C1=C2C[C@@H](O)[C@H]3[C@@]4(C)CC[C@@H](O)[C@@H](C)[C@@H]4CC[C@]3(C)[C@@]2(C)C[C@@H]1Sc1ccc(Br)cc1 (stereo partly drawn) [Example 2, 3α,11α-dihydroxy-16β--(4'-bromophenylthio)fusida-13(17),24-dien-21-oic acid sodium salt]
IC50 [1]: 0.5 µg/mL
IC50 [2]: 6.3 µg/mL
IC50 [3]: 0.2 µg/mL
IC50 [4]: 10 µg/mL
IC50 (Corynebact. acnes Leo FN): 0.63 µg/mL
IC50 [5]: 13 µg/mL
IC50 (Staph. aureus Leo CJ145): 100 µg/mL

CC(C)CCCC(C(=O)O)C1=C2C[C@@H](O)[C@H]3[C@@]4(C)CC[C@@H](O)[C@@H](C)[C@@H]4CC[C@]3(C)[C@@]2(C)C[C@@H]1Sc1ccccc1 (stereo partly drawn) [Example 8, 3α,11α-Dihydroxy-16β-phenylthiofusida-13(17)-en-21-oic acid, sodium salt]
IC50 [1]: 0.5 µg/mL
IC50 [2]: 2 µg/mL
IC50 [3]: 0.5 µg/mL
IC50 [4]: 2.5 µg/mL
IC50 (Corynebact. acnes Leo FN): 1.6 µg/mL
IC50 [5]: > 100 µg/mL
